Results on eight molecules are retold here after PubChem BioAssay (NCI).

Among the test systems are NCI-H226 lung; RPMI-8226 leukemia; HS 578T breast; CCRF-CEM leukemia; MCF7 breast; U251 CNS; SNB-75 CNS; HL-60(TB) leukemia; UACC-62 melanoma; M14 melanoma; HOP-92 NSCLC; NCI-H522 lung; MDA-MB-231 breast; IGROV1 ovarian; K-562 leukemia; SK-MEL-5 melanoma; OVCAR-8 ovarian; NCI-H460 lung; A498 renal.
What all share (test): NCI anticancer screen, dose series, 48 h

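All cell lines were grown in 96-well plates and treated with compound for 48 hours. The concentration for full growth arrest is given as TGI.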

For `COc1cc(C2SC(N)=Nc3c2c(C)nn3C(=O)c2ccc(Cl)cc2)ccc1O` (stereo not drawn), the TGI with NCI-H226 lung, with RPMI-8226 leukemia, with HS 578T breast, in the test with CCRF-CEM leukemia, in the test with MCF7 breast and with U251 CNS was above 10 µM throughout. In addition, the TGI in the test on SNB-75 CNS, in the test on HL-60(TB) leukemia, in the test on UACC-62 melanoma, in the test on M14 melanoma, with HOP-92 NSCLC and with NCI-H522 lung was above 10 µM each time. In addition, the TGI in the test on MDA-MB-231 breast, in the test on IGROV1 ovarian, in the test on K-562 leukemia, in the test on SK-MEL-5 melanoma, with OVCAR-8 ovarian and in the test with NCI-H460 lung was above 10 µM in each case.

Consider `CC1CC/C(=C\c2ccc(F)cc2)C2=C1C(c1ccc(F)cc1)n1c(s/c(=C\c3ccc(Cl)cc3)c1=O)=N2` (stereo not drawn), for which the TGI in the test with A498 renal, in the test with RPMI-8226 leukemia, in the test with HS 578T breast, in the test on CCRF-CEM leukemia, in the test with MCF7 breast and in the test with U251 CNS was above 100 µM each time. The TGI in the test with HL-60(TB) leukemia, in the test on UACC-62 melanoma, in the test with M14 melanoma, with HOP-92 NSCLC, in the test on MDA-MB-231 breast and with IGROV1 ovarian was above 100 µM in each case. Further, the TGI with K-562 leukemia, in the test on SK-MEL-5 melanoma and in the test with OVCAR-8 ovarian was above 100 µM each time.

`N=c1oc2ccc(Cl)cc2cc1C(=O)NC1CCCCC1`: the TGI in the test on A498 renal, in the test with NCI-H226 lung, in the test on RPMI-8226 leukemia, with HS 578T breast, with CCRF-CEM leukemia and with MCF7 breast was above 100 µM each time. Also, the TGI in the test with U251 CNS, in the test on SNB-75 CNS, in the test on HL-60(TB) leukemia, in the test with UACC-62 melanoma, in the test with M14 melanoma and in the test with HOP-92 NSCLC was above 100 µM throughout. In addition, the TGI in the test with MDA-MB-231 breast, in the test with IGROV1 ovarian, in the test on K-562 leukemia, in the test on SK-MEL-5 melanoma, with OVCAR-8 ovarian and in the test with NCI-H460 lung was above 100 µM in each case.

As to `Fc1ccc(C(OCCN2CCC3CCC(C2)N3C/C=C/c2cccnc2)c2ccc(F)cc2)cc1` (stereo not drawn), the TGI is 28 µM with A498 renal; 30.3 µM in the test on NCI-H226 lung; 5.8 µM with RPMI-8226 leukemia; 31.7 µM in the test with HS 578T breast; 17.5 µM in the test on CCRF-CEM leukemia; 25.5 µM with MCF7 breast. Also, the TGI in the test with U251 CNS was determined as 24.4 µM; in the test on SNB-75 CNS, 27.9 µM; in the test with UACC-62 melanoma it was 25 µM; with M14 melanoma, 7.09 µM; in the test on HOP-92 NSCLC it was 27 µM; in the test on NCI-H522 lung, 27 µM. Moreover, the TGI with MDA-MB-231 breast worked out at 26.6 µM; in the test on IGROV1 ovarian, 27.1 µM; in the test on SK-MEL-5 melanoma, 14.9 µM; with OVCAR-8 ovarian it was 25.9 µM; with NCI-H460 lung it was 30.6 µM.

As for `O=C1Cc2c([nH]c3cc(Br)ccc23)-c2ccccc2N1`, the TGI in the test with A498 renal is 49 µM; with NCI-H226 lung it was 34.7 µM; in the test on HS 578T breast, 69.9 µM; in the test on CCRF-CEM leukemia it was 20.2 µM; in the test with MCF7 breast, above 100 µM; in the test with U251 CNS, 31.8 µM. Besides, the TGI was 44.9 µM with SNB-75 CNS; above 100 µM with HL-60(TB) leukemia; 49.2 µM with UACC-62 melanoma; 37.5 µM in the test on M14 melanoma; 88.3 µM in the test with HOP-92 NSCLC; 52.7 µM in the test on NCI-H522 lung. Also, the TGI was above 100 µM in the test with MDA-MB-231 breast; 99.7 µM in the test with IGROV1 ovarian; above 100 µM in the test on K-562 leukemia; 38.9 µM in the test with SK-MEL-5 melanoma; 73.9 µM in the test with OVCAR-8 ovarian; 48.5 µM with NCI-H460 lung.

`NC(=O)N=Nc1c2ccccc2n2[nH]ccc12`: the TGI in the test on A498 renal was above 100 µM; in the test with NCI-H226 lung it was above 100 µM; with HS 578T breast, above 100 µM; in the test on CCRF-CEM leukemia it was above 100 µM; in the test on MCF7 breast, 66.7 µM; in the test with U251 CNS it was above 100 µM. Also, the TGI in the test on SNB-75 CNS was above 100 µM; in the test on HL-60(TB) leukemia, 58.1 µM; in the test on UACC-62 melanoma, above 100 µM; in the test with M14 melanoma it was above 100 µM; in the test on HOP-92 NSCLC, above 100 µM; with NCI-H522 lung, above 100 µM. For the same molecule, the TGI with MDA-MB-231 breast, in the test on IGROV1 ovarian, in the test with K-562 leukemia, in the test with SK-MEL-5 melanoma, with OVCAR-8 ovarian and with NCI-H460 lung was above 100 µM in each case.

With `CCCC(=O)Oc1cc(OC(=O)CCC)c2c(C)cc(=O)oc2c1`, the TGI in the test with A498 renal, in the test with NCI-H226 lung, in the test with RPMI-8226 leukemia, in the test on HS 578T breast, in the test on CCRF-CEM leukemia and in the test on MCF7 breast was above 100 µM throughout. The TGI in the test on U251 CNS, in the test on SNB-75 CNS, in the test on UACC-62 melanoma, in the test on M14 melanoma, in the test with HOP-92 NSCLC and with MDA-MB-231 breast was above 100 µM in each case. For the same molecule, the TGI with IGROV1 ovarian, in the test with K-562 leukemia, in the test with SK-MEL-5 melanoma and in the test on OVCAR-8 ovarian was above 100 µM in each case.

As for `COc1cc(OC)cc(Oc2nc3c(N)cc(C(F)(F)F)cc3nc2-c2ccccc2)c1`, the TGI in the test with A498 renal is above 100 µM; in the test on NCI-H226 lung, above 100 µM; in the test with RPMI-8226 leukemia it was 77.7 µM; in the test on HS 578T breast, above 100 µM; in the test on CCRF-CEM leukemia it was above 100 µM; in the test with MCF7 breast it was 99 µM. In addition, the TGI with U251 CNS was above 100 µM; with SNB-75 CNS, above 100 µM; in the test on HL-60(TB) leukemia, 52.4 µM; in the test on UACC-62 melanoma, above 100 µM; in the test on M14 melanoma, above 100 µM; in the test with HOP-92 NSCLC, above 100 µM. For the same molecule, the TGI was 98.7 µM in the test on MDA-MB-231 breast; above 100 µM with IGROV1 ovarian; 31.4 µM in the test on K-562 leukemia; above 100 µM with SK-MEL-5 melanoma; above 100 µM with OVCAR-8 ovarian; above 100 µM in the test on NCI-H460 lung.
